From patent US10259777B2, “(E)-3-(3,4-dihydroxyphenyl)-N-(prop-2-yn-1-yl)acrylamide for treatment of neurodegenerative diseases” (THE UNIVERSITY OF HONG KONG, priority 2015, dated 2019)

Assays:
[1] = Pharmacokinetic analysis of PACA after oral administration, plasma and brain, LC-MS/MS MRM; assay type: in vivo, Sprague Dawley rats
Experimental: (A) HPLC-MS/MS detection of PACA. (B) Determination of PACA in mouse plasma. (C) Determination of PACA in mouse brain tissues. PACA (30 mg/kg) was orally administered into mice. Blood samples and brain tissues were collected after different times (0, 0.5, 1, 2, 3, 6, 9, 12 or 24 h). PACA was determined by liquid chromatography-mass spectrometric multiple reaction monitoring-based strategy.
Nine male Sprague Dawley rats with a body weight of 240-280 g were purchased from Laboratory Animal Unit, HKU. The animals were housed in a qualified facility run on a 12-hour light and dark cycle. The animals were allowed unrestricted access to food and water. The protocol for the animal studies was approved by Li Ka Shing Faculty of Medicine, University of Hong Kong. The rats were administered with PACA (30 mg/kg) in 50% propanediol in saline by oral gavage whereas the control animal received vehicle only. The rats were anesthetized by isoflurane at the time points of 0, 0.5, 1, 2, 3, 6, 9, 12 or 24 h. Blood samples were collected by cardiac puncture using pre-heparinized syringes and immediately transferred into the tubes containing acetonitrile for preventing esterase metabolism. Blood samples were centrifuged at 5700 rpm for 10 minutes at 4° C. to recover plasma. Brain tissues were excised after the removal of blood vessels, blotted dry with clean paper towels, and weighed. All samples were stored at −80° C. before use. HPLC separation was performed on a Phenomenex Synergi hydro-RP C18 reversed phase column (150 mm×4.6 mm, 4 m) (Torrance, Calif., USA) under the control of Agilent HLPC 1100 system (Santa Clara, Calif., USA). Gradient was set using mobile phase: A, water with 0.05% (v/v) formic acid, B, acetonitrile with 0.05% (v/v) formic acid as follows: 0-2.5 min, 40-50% B; 2.5-5.5 min, 50-80% B; 5.5-11.5 min, 80% B; 11.5-12 min, 80-40% B, 12-15 min, 40% B. Flow rate was constant at 0.7 mL/min. The column temperature was maintained at 30° C. Sample volume for injection was 20 μL. […] Multiple-reaction monitoring (MRM) detection was used for the quantitation of all analytes.

Keap1 = biological target: T1, Keap1 (Rattus norvegicus, UniProt P57790); test: Identification of PACA-modified proteins by Click chemistry biotin tagging and affinity isolation; assay type: cell-based; settings: 20 μM PACA, biotin tag by Click chemistry, Keap1 antibody pull-down
T1 construct: endogenous in cells; host or cells: PC12 (rat pheochromocytoma) cells
Experimental: PACA directly modifies the proteins bearing free cysteine residues after oxidase-mediated oxidation into chemically reactive o-quinone. At the end of 24 hour incubation, a biotin tag was introduced to the proteins that were covalently modified by PACA. Following affinity isolation with anti-Keap1 antibody bead, streptavidin-horseradish peroxidase (HRP) detected Keap1 as the predominant PACA-modified protein with the apparent molecular size of ˜72 kDa. (A) Biotinylation of PACA-modified proteins by Click chemistry. Oxidase represents the enzymes that oxidize PACA to o-quinone, Protein-SH represents the protein bearing free cysteine residues. (B) Procedure for the isolation of PACA-modified proteins. (C) Western blotting analysis of PACA-modified proteins. PC12 cells were treated with PACA (20 μM) for 6 h. […] All protein fractions were resolved by SDS-PAGE and detected by streptavidin-HRP conjugate. […]
PACA is converted to the chemically reactive o-quinone intermediate by the intracellular oxidases after PACA got inside the cells. […] Following gel electrophoresis and Western blotting onto PVDF (polyvinylidene difluoride) membranes, HRP-streptavidin conjugate detected a predominant ˜70 kDa protein band (data not shown). Such protein band was also detected by keap1 antibody through a similar procedure. […] The blots were probed by HRP-conjugated streptavidin, and subsequently detected by chemiluminescence. […]

[2] = tested on: mouse model of Parkinson's disease; test: MPTP-induced motor dysfunctions, rotarod and pole test; assay type: in vivo, mice; settings: PACA 15 mg/kg p.o. and MPTP 25 mg/kg i.p. daily for seven days, rotarod and pole test at day-8
Experimental: FIG. 11. In vivo Effect of PACA on MPTP-induced motor dysfunctions in mice. (A) Study design. (B) Rotarod test. Mice were placed on horizontal drums (30 mm in diameter), rotating at a progressively increasing speed, from 4 to 32 rpm over a 5-min period. The time that each animal stayed on the rod before falling was measured. (C) Pole test. Mice were placed with facing head-up on the top of the 50 cm long metal rod (1 cm diameter). Total time for each animal to reach the base of the pole was recorded. Each mouse was tested for three times. The data were presented as Mean±SEM and analyzed by one-way ANOVA with post-hoc Dunnett test. *p<0.05; **, p<0.01.
The in vivo neuroprotective effect of PACA was evaluated in a mouse model of Parkinson's disease. Nineteen mice were randomly divided into three groups: control (n=5), receiving vehicle administrations; MPTP (n=7), receiving i.p. injection of MPTP (25 mg/kg) every afternoon for seven days; MPTP+PACA (n=7), receiving p.o administration of PACA (15 mg/kg) every morning and i.p. injection of MPTP (25 mg/kg) every afternoon for seven days. At day-8, the motor functions of mice were assessed by rotarod performance test and pole test.

T1 sequence (P57790 whole entry): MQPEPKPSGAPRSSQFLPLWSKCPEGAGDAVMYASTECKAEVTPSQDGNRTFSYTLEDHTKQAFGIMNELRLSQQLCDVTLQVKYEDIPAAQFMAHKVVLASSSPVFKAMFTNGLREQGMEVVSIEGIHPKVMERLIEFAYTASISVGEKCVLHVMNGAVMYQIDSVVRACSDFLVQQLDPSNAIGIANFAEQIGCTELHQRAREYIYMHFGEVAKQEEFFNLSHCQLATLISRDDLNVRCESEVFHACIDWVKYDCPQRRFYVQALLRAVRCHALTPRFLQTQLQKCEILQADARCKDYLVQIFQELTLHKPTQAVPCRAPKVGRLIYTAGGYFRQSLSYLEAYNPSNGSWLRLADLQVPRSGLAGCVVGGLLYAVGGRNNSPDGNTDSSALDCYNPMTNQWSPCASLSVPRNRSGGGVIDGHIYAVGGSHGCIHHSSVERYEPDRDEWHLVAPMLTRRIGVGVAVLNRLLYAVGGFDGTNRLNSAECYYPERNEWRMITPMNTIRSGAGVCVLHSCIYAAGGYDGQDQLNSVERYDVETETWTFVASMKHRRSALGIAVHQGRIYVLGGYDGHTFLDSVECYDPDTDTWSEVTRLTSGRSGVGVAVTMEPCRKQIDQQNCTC

time to peak concentration in blood ([1]; oral administration, 30 mg/kg): ≤ 60 min
time to peak concentration in brain tissues ([1]; oral administration, 30 mg/kg): ≤ 60 min
Compound: C#CCNC(=O)/C=C/c1ccc(O)c(O)c1 [PACA, (E)-3-(3,4-dihydroxyphenyl)-N-(prop-2-yn-1-yl)acrylamide]
bioavailability in plasma and brain tissues ([1]; after oral administration): rapidly bioavailable in plasma and brain tissues
PACA-modified protein isolated from treated PC12 cells (Keap1): kelch-like ECH-associated protein 1 (Keap1) was isolated as the predominant protein
protection against MPTP-induced motor dysfunctions [2]: effectively protected animals against MPTP-induced motor dysfunctions
